In ChEMBL document CHEMBL1201862, “PubChem BioAssay data set” (2004):
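In this assay, cells in 96-well plates receive the compound at five concentrations for 48 hours. Endpoints are linearly interpolated between the surrounding concentrations. At the GI50, growth is halved.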 Active and inactive are the calls of the source. No stated cut-off is given here; in the data, active = GI50 up to about 1.1 µM and inactive = higher.

Key:
Assay in all cases: NCI-60 cell line screen, 48 h
Malme-3M = system: Malme-3M
LOX IMVI = system: LOX IMVI
ACHN = system: ACHN
HCC 2998 = system: HCC 2998
HOP-92 = system: HOP-92
NCI-H460 = system: NCI-H460
HT-29 = system: HT-29
OVCAR-4 = system: OVCAR-4
SK-MEL-2 = system: SK-MEL-2
MCF7 = system: MCF7
SK-OV-3 = system: SK-OV-3
DU-145 = system: DU-145
A498 = system: A498
PC-3 = system: PC-3
SK-MEL-5 = system: SK-MEL-5
SK-MEL-28 = system: SK-MEL-28
SF-295 = system: SF-295
RPMI-8226 = system: RPMI-8226
OVCAR-5 = system: OVCAR-5
NCI/ADR-RES = system: NCI/ADR-RES
TK-10 = system: TK-10
MDA-N = system: MDA-N
HCT-15 = system: HCT-15
MDA-MB-231 = system: MDA-MB-231
786-0 = system: 786-0
EKVX = system: EKVX
CAKI-1 = system: CAKI-1
SN12C = system: SN12C
SNB-19 = system: SNB-19
SF-268 = system: SF-268
COLO 205 = system: COLO 205
HOP-62 = system: HOP-62
BT-549 = system: BT-549
OVCAR-8 = system: OVCAR-8
CCRF-CEM = system: CCRF-CEM
NCI-H23 = system: NCI-H23
SW-620 = system: SW-620
NCI-H226 = system: NCI-H226
OVCAR-3 = system: OVCAR-3
RXF 393 = system: RXF 393
UO-31 = system: UO-31
SNB-75 = system: SNB-75
HCT-116 = system: HCT-116
A549 = system: A549
UACC-257 = system: UACC-257
MOLT-4 = system: MOLT-4
UACC-62 = system: UACC-62
KM12 = system: KM12
MDA-MB-435 = system: MDA-MB-435
K562 = system: K562
U-251 = system: U-251
HL-60 = system: HL-60
SF-539 = system: SF-539
IGROV-1 = system: IGROV-1
T47D = system: T47D
SR = system: SR
M14 = system: M14
NCI-H522 = system: NCI-H522

Measured: GI50

CCCCS/C(=C(/C#N)C(N)=O)c1cc2c([nH]1)CCCC2
inactive: Malme-3M 11.4 µM | LOX IMVI 8.93 µM | ACHN 16.3 µM | HCC 2998 11.4 µM | HOP-92 17.1 µM | NCI-H460 18.7 µM | HT-29 4.69 µM | OVCAR-4 16.1 µM | SK-MEL-2 12.1 µM | MCF7 10.3 µM | SK-OV-3 22.9 µM | DU-145 12.1 µM | A498 17.6 µM | PC-3 11.4 µM | SK-MEL-5 13.8 µM | SK-MEL-28 14 µM | SF-295 12.4 µM | RPMI-8226 6.71 µM | OVCAR-5 29 µM | NCI/ADR-RES 8 µM | TK-10 15.3 µM | MDA-N 4.19 µM | MDA-MB-231 13.1 µM | 786-0 11.5 µM | EKVX 11.2 µM | CAKI-1 14 µM | SN12C 23.9 µM | SNB-19 19.1 µM | SF-268 13.8 µM | COLO 205 14 µM | HOP-62 21.9 µM | BT-549 11.1 µM | OVCAR-8 15.6 µM | CCRF-CEM 6.7 µM | NCI-H23 16.7 µM | SW-620 6.12 µM | NCI-H226 15.1 µM | OVCAR-3 15.7 µM | RXF 393 14.9 µM | UO-31 13.1 µM | SNB-75 15.3 µM | HCT-116 11 µM | A549 21.9 µM | UACC-257 14.3 µM | MOLT-4 10 µM | UACC-62 6.52 µM | KM12 5.78 µM | MDA-MB-435 3.36 µM | K562 3.68 µM | U-251 15.7 µM | HL-60 3.67 µM | SF-539 14.7 µM
9.71 µM: HCT-15

CC(=O)OCC1OC(O[C@@H]2C[C@H]3C(C)(C)[C@H](OC(C)=O)CC[C@]3(C)[C@H]3CCC4=C([C@@H](C)C[C@@H](O)[C@H](O)C(C)(C)O)CC[C@@]4(C)[C@@]32C)C(O)C(O)C1O (stereo partly drawn)
inactive: SF-268 13.6 µM | U-251 14.6 µM

CC(=O)OCC(OC(C)=O)C(OC(C)=O)C(C=NN(C(C)=O)S(=O)(=O)c1ccc(/C=C2\NC(=O)NC2=O)cc1)OC(C)=O (stereo not drawn)
inactive: Malme-3M > 100 µM | HCC 2998 > 100 µM | HT-29 > 100 µM | SK-MEL-2 > 100 µM | MCF7 > 100 µM | SF-295 > 100 µM | CAKI-1 > 100 µM | SN12C > 100 µM | HOP-62 > 100 µM | BT-549 > 100 µM | OVCAR-8 > 100 µM | NCI-H226 > 100 µM | RXF 393 > 100 µM | SNB-75 > 100 µM | K562 > 100 µM | SF-539 > 100 µM

COc1cc2c[n+](C)c3c4cc(OC)c(OCc5ccccc5)cc4c(OCc4ccccc4)cc3c2cc1OC
97.9 µM: HCT-15
inactive: Malme-3M 2.22 µM | IGROV-1 1.69 µM | LOX IMVI 5.3 µM | ACHN > 75.2 µM | HCC 2998 11.7 µM | HOP-92 1.84 µM | NCI-H460 33 µM | HT-29 3.61 µM | OVCAR-4 4.11 µM | SK-MEL-2 2.1 µM | MCF7 3.93 µM | SK-OV-3 5.68 µM | DU-145 11.5 µM | A498 48 µM | PC-3 2.5 µM | SK-MEL-5 2.08 µM | SK-MEL-28 5.48 µM | SF-295 25.7 µM | RPMI-8226 25.7 µM | OVCAR-5 > 29.6 µM | NCI/ADR-RES 84.7 µM | TK-10 23.3 µM | MDA-N 1.23 µM | MDA-MB-231 5.02 µM | 786-0 13.2 µM | T47D 5.22 µM | EKVX 38.5 µM | CAKI-1 35.2 µM | SN12C 4.03 µM | SF-268 3.44 µM | HOP-62 13.8 µM | BT-549 2.21 µM | OVCAR-8 6.85 µM | CCRF-CEM 4.68 µM | NCI-H23 5.58 µM | SR 1.4 µM | SW-620 3.18 µM | NCI-H226 2.26 µM | OVCAR-3 2.51 µM | M14 9.66 µM | RXF 393 12.1 µM | UO-31 > 100 µM | SNB-75 4.46 µM | HCT-116 3.76 µM | A549 30 µM | UACC-257 2.9 µM | MOLT-4 2.54 µM | UACC-62 2.6 µM | KM12 10.5 µM | MDA-MB-435 1.74 µM | K562 1.28 µM | SF-539 2.57 µM
active: SNB-19 0.923 µM | COLO 205 0.429 µM | U-251 0.449 µM | NCI-H522 416 nM
